# Source: US20090074878A1, “Non-Toxic Water Soluble Inorganice Antimicrobal Polymer and Related Methods” (priority 2005, published 2009)
# Test system: E coli O157:H7
# Test: Effect of pH on Concrobium activity, lysis under light microscope (Example 5)
# Format: cell-based
# Details: one million CFU
# Experimental: One million CFU of E coli O157:H7 were incubated with the following and samples of each were observed under a light microscope:
# 1. 1 mL of Concrobium, normal saline and 0.1 N (normal) sodium hydroxide 2. 1 mL of Concrobium and normal saline 3. 1 mL normal saline
structure (smiles),measurement,value
[Na+].[OH-] [sodium hydroxide],lysing effect on E coli in suspension,lysed the E. coli in suspension
